Values quoted from earlier work as cited in patent publication US20070015719A1 (Elan Pharma International Limited, priority 2005, published 2007).

Settings: in acidic solutions

stability: stable
Substance: 6-o-methyl erythromycin A [clarithromycin]
